Measurements published in patent publication US7495015B2, “Indazole derivatives and methods for using the same” (Roche Palo Alto LLC, priority 2004, dated 2009).

Target: T1, p38 MAP kinase (Homo sapiens, UniProt Q16539)
T1 construct: made in house; host or cells: E. coli (co-expressed with SEK-1 and MEKK to obtain the phosphorylated form)
Experiment: p38 (MAP) kinase in vitro assay (transfer of γ-phosphate from γ-33P-ATP to Myelin Basic Protein)
Type: biochemical
Details: phosphorylated recombinant p38 MAP kinase, MBP substrate, 30° C.
Procedure: This example illustrates a p38 (MAP) kinase in vitro assay useful for evaluating the compounds of the invention.
The p38 MAP kinase inhibitory activity of compounds of this invention in vitro was determined by measuring the transfer of the γ-phosphate from γ-^33P-ATP by p-38 kinase to Myelin Basic Protein (MBP), using a minor modification of the method described in Ahn, et al., J. Biol. Chem. 266:4220-4227 (1991).
The phosphorylated form of the recombinant p38 MAP kinase was co-expressed with SEK-1 and MEKK in E. Coli (see, Khokhlatchev, et al., J Biol. Chem. 272:11057-11062 (1997)) and then purified by affinity chromatography using a Nickel column.
The phosphorylated p38 MAP kinase was diluted in kinase buffer (20 mM 3-(N-morpholino)propanesulfonic acid, pH 7.2, 25 mM β-glycerol phosphate, 5 mM ethylene glycol-bis(beta-aminoethyl ether)-N,N,N′,N′-tetraacetic acid, 1 mM sodium ortho-vanadate, 1 mM dithiothreitol, 40 mM magnesium chloride). Test compound dissolved in DMSO or only DMSO (control) was added and the samples were incubated for 10 min at 30° C. The kinase reaction was initiated by the addition of a substrate cocktail containing MBP and γ-^33P-ATP. […] The phosphorylated MBP was then separated from the residual γ-^33P-ATP using a phosphocellulose membrane (Millipore, Bedfrod, Mass.) and quantitated using a scintillation counter (Packard, Meriden, Conn.).

T1 sequence (Q16539 whole entry): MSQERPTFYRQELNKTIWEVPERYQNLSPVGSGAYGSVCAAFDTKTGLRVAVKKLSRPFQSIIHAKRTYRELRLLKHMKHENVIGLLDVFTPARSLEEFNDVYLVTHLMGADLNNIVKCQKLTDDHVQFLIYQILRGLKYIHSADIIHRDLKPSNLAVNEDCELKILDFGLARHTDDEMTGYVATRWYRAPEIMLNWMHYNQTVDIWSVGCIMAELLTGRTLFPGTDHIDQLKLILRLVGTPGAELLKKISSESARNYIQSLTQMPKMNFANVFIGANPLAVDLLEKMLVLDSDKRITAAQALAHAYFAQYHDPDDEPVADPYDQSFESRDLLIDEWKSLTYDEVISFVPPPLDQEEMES

For `Oc1ccc(-c2n[nH]c3cc(Oc4ccccc4F)ccc23)cc1` [Compound 35, 4-[6-(2-Fluoro-phenoxy)-1H-indazol-3-yl]-phenol], the IC50 was 28 nM.
